Earlier results in patent US20100093659A1, “POLYVALENT BIOCONJUGATES” (GLYKOS FINLAND OY, priority 2006, published 2010).

System: Helicobacter pylori
Settings: monomeric form

CC(=O)N[C@H]1[C@H]([C@H](O)[C@H](O)CO)O[C@@](O[C@H]2[C@@H](O)[C@@H](CO)O[C@@H](O[C@H]3[C@H](O)[C@@H](O)C(O)O[C@@H]3CO)[C@@H]2O)(C(=O)O)C[C@@H]1O (stereo partly shown) [3′-sialyllactose]
concentrations at which adhesion of Helicobacter pylori to gastrointestinal epithelial cells was inhibited: millimolar
